Assay results: article PMC9091059 (Nature biotechnology, 2021)
Read-outs that look alike come from different tables or passages of the source.

How the values were obtained:
eCB2.0 [1] = test: Gq-i Ca2+ imaging assay; type: cell-based, human; conditions: HEK293T cells expressing eCB2.0
wildtype CB1R = wildtype CB1R (Homo sapiens, UniProt P21554); test: Gq-i Ca2+ imaging assay; type: cell-based; conditions: HEK293T cells expressing CB1R
[2] = system: GRABeCBmut (eCBmut) sensor; type: cell-based, human; conditions: cultured rat cortical neurons, even at 100 μM
[3] = system: GRABeCBmut (eCBmut) sensor; test: eCBmut fluorescence response to ligands in HEK293T cells; type: cell-based, human; conditions: all concentrations tested
eCB2.0 [4] = test: BRET Gβγ sensor assay, cells expressing eCB2.0; type: cell-based, human; conditions: 20 μM 2-AG
eCBmut = test: BRET Gβγ sensor assay, cells expressing eCBmut; type: cell-based, human; conditions: 20 μM 2-AG
human CB1R = human CB1R (Homo sapiens, UniProt P21554); test: BRET Gβγ sensor assay, cells expressing CB1R; type: cell-based; conditions: 20 μM 2-AG
[5] = system: eCB2.0 fluorescence in hippocampal slices; test: 2-photon imaging of eCB2.0 in acute hippocampal CA1 slices; parameters: species or system mouse
[6] = system: spontaneous transient eCB2.0 signals in cultured neurons; type: cell-based, rat
[7] = system: evoked eCB release in dorsolateral striatum (DLS) slices; parameters: species or system mouse
[8] = system: stimulus-evoked eCB2.0 signal in cultured rat cortical neurons; type: cell-based; conditions: 20 electrical pulses, 68 min after application; MAGL (JZL184) or FAAH (URB597) inhibition

human CB1R, sequence (P21554 whole entry): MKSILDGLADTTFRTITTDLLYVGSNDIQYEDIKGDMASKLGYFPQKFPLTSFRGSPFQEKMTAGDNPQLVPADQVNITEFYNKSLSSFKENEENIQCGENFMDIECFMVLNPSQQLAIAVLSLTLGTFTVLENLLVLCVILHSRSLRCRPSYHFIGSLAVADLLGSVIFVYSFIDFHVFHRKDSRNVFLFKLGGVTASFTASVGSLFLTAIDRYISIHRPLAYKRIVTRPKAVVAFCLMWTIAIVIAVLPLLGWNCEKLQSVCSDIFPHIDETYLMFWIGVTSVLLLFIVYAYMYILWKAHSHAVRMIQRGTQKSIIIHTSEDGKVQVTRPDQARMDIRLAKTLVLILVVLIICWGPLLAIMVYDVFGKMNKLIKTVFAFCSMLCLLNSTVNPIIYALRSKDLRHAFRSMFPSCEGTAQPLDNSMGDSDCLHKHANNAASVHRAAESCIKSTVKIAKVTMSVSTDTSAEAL
wildtype CB1R, sequence (P21554 whole entry): as above

SMILES: CCCCC/C=C\C/C=C\C/C=C\C/C=C\CCCC(=O)OC(CO)CO [2-AG, 2-arachidonoylglycerol]
- jRGECO1a Ca2+ response (G protein activation via Gαq-i) (eCB2.0 [1]): failed in inducing jRGECO1a response
- jRGECO1a Ca2+ response (G protein activation via Gαq-i) (wildtype CB1R): increased jRGECO1a fluorescent response in a dose-dependent manner
- eCBmut fluorescence response [2]: neither 2-AG nor AEA elicited a response
- eCBmut fluorescence response [3]: no response
- BRET change (Gβγ activation) (eCB2.0 [4]): no effect on BRET
- BRET change (Gβγ activation) (eCBmut): no effect on BRET
- BRET change (Gβγ activation) (human CB1R): robust increase in BRET

SMILES: CCCCC/C=C\C/C=C\C/C=C\C/C=C\CCCC(=O)NCCO [AEA, anandamide]
- eCBmut fluorescence response [3]: no response

SMILES: Cc1c(C(=O)NN2CCCCC2)nn(-c2ccc(Cl)cc2Cl)c1-c1ccc(I)cc1 [AM251]
- effect on AEA-induced eCB2.0 fluorescence increase [5]: reversed
- effect on electrically evoked eCB2.0 signal [5]: eliminated the signal induced by even 100 field stimuli
- effect on spontaneous eCB2.0 transients [6]: no longer observed
- effect on electrically evoked eCB2.0 signal [7]: blocked the response

SMILES: O=C(Oc1ccc([N+](=O)[O-])cc1)N1CCC(C(O)(c2ccc3c(c2)OCO3)c2ccc3c(c2)OCO3)CC1 [JZL184]
- effect on decay time constant of evoked eCB2.0 signal [8]: significantly increased the decay time constant

SMILES: O=C(NN1CCCCC1)c1nn(-c2ccc(Cl)cc2Cl)c2c1CCCc1cc(Cl)ccc1-2 [NESS0327]
- effect on spontaneous eCB2.0 transients ([6]; NESS0327 1 μM, TTX 1 μM): no longer observed

SMILES: NC(=O)c1cccc(-c2cccc(OC(=O)NC3CCCCC3)c2)c1 [URB597]
- effect on decay time constant of evoked eCB2.0 signal [8]: only a slight—albeit significant—effect on the decay time constant
